Patent publication EP0108147B1, “Use of a protoberberine alkaloid and composition containing same” (MAROKO, Peter R., priority 1982, dated 1983)

Tests used:
Format in all cases: in vivo
Mongrel dogs [1] = experiment: Protocol Z: continuous 35 minute infusion in anesthetized open-chest dogs, constant left ventricular pressure; settings: for reduction of calculated peripheral resistance: 0.2 mg/Kg/min
Method: Mongrel dogs weighing between 15 and 25 kg were anesthetized with intravenous sodium thiamylal (20 mg/kg initially with additional doses given as needed). The dogs were intubated endotracheally, and respiration was maintained by a Harvard respirator. The chest was then opened in the fourth left intercostal space and the heart suspended temporarily in a pericardial cradle.
Aortic pressures were recorded through a polyethylene cannula introduced through the carotid artery (Statham P23 Db pressure transducer) and electrocardiogram (lead aVF) were recorded throughout the experiment on a polygraph (Gould Instruments). Another polyethylene cannula was placed in the left atrium for measurement of atrial pressure (Statham P23 Db pressure transducer). An electromagnetic flowmeter (Biotonix Laboratories) was placed around the ascending aorta and the aortic flow was recorded on a polygraph. Two catheters were inserted into the left ventricle through a femoral artery.
The first ("pigtail") served as a reference, while the second (Millar microtip transducer catheter) was connected through a Millar transducer (Millar Instruments, Houston, Texas) to the polygraph, where both left ventricular pressure curves were recorded simultaneously. The left ventricular end diastolic pressure was recorded separately through a Millar catheter. The first derivative of the left ventricular pressure (dP/dt) was obtained by electronic differentiation of the left ventricular pulse recorded through the Millar catheter.
A reservoir of blood was connected with the femoral artery in order to maintain constant left ventricular pressure during the experiment. In this protocol, similarly to protocol M, systemic arterial pressure was maintained constant in order to have accurate measurements of dP/dt which represent well left ventricular contractility when the systolic pressure is maintained constant. However, calculated total peripheral resistance will be higher (an underestimation of the fall). After stabilization of hemodynamics as reflected by continuously monitored parameters for 15 minutes, the substances to be studied were infused intravenously using a Harvard infusion pump. Registrations were made every 5 minutes at a paper speed of 200 mm/second, while all the parameters were recorded constantly at a speed of 2 mm/second. The dogs were randomly assigned to several groups: • Group a) Control - in these dogs a solution of 5% dextrose in water was infused in the same quantity as in the berberine treated animals (n = 7).
In all berberine, berberrubine coreximine and tetrahydropalmatine groiups the compounds were infused at constant rate for 35 minutes and the data analyzed at 5 minute intervals. • Group b) Berberine 0.7 mg/Kg/min (n = 10). • Group c) Berberine 0.2 mg/Kg/min (n = 7). • Group d) Berberine 0.02 mg/Kg/min (n = 7). • Group e) Berberrubine 0.2 mg/Kg/min (n = 7). • Group f) Tetrahydropalmatine 0.2 mg/Kg/min (n = 4). • Group g) Coreximine 0.2 mg/Kg/min (n = 8).
Therefore, group b, c and d were used to analyze the various effects of continuous infusion of berberine and its dose response and groups e and f and g used to examine the effects of these three other proberberines. Moreover, their effects were compared to the berberine treated dogs with the same dose (i.e. Group c).

Mongrel dogs [2] = experiment: Protocol HV: acute left ventricular failure by coronary microsphere embolization, closed chest; settings: for overall result in the model of acute left ventricular failure / preload reduction: dog, in vivo
Method: - Experiments were carried out in 21 mongrel dogs of either sex with body weight between 19 and 39 kg. Anesthesia was induced with sodium pentobarbital, 25 mg/kg of body weight intravenously, and small supplementary doses were given as necessary to maintain a constant level of anesthesia. The dogs were placed in the left lateral position and ventilation was maintained through a cuffed endotracheal tube with a volume-controlled respirator (Harvard Apparatus Co., Millis, Massachusetts). Polyethylene cannuleae were placed into the jugular and femoral veins for intravenous infusions and drug adminstration. Electrocardiograms (lead aVF) were monitored continuously throughout the experiments.
A polyethylene cannula was introduced into the aorta through the left carotid artery to record arterial pressure. (Stantham P23 ID transducer, Stantham Instruments, Inc. Oxnard, California). A Millar microtip transducer catheter (Millar Instruments, Inc., Houston, Texas) was introduced into the left ventricular cavity through the femoral artery to measure left ventricular pressures. For adjustment of zero level, left ventricular pressure was also measured through the fluid-filled lumen in the Millar catheter (Statham P23 ID transducer). The maximal rate of rise of left ventricular pressure, LV dP/dt, was recorded by means of a differentiator. All these parameters were recorded continuously on a polygraph (Gould 2800, Gould Instruments, Cleveland, Ohio). Cardiac output was determined by the thermodilution technique, using a thermistor catheter in the pulmonary artery and calculated by a cardiac output computer (Elecath, Electro- catheter Corp., Rahway, New Jersey). The coefficient of variation for duplicate CO measurements was 5%. In addition to the parameters directly obtained, total peripheral vascular resistance was calculated from the ratio of […] and cardiac output. Stroke volume was calculated by dividing cardiac output by heart rate. Heparin (Invendex) (5000 IU) was administered to avoid clotting of the catheters.
To induce acute left vetricular failure, initially the left main coronary artery was catheterized with a Judkin coronary artery catheter (7F, ISCI Cardiology and Radiology Products, Billerica, Massachusetts) under fluoroscopic control. It was introduced through a femoral artery, and polystyrene microspheres (3M Company, St. Paul, Minnesota) with a diameter of 52. 5 ± 4.0 µm (mean±SD) were injected into the coronary artery. The microspheres were used in a concentration of 1 mg (i.e., 12,000) per ml saline. The first dose of microsphere solution was 0.5 mi/kg body weight, and all subsequent doses were 0.25 ml/kg body weight, administered every 5 minutes. Administration of microspheres was discontinued when LV/dP/dt had been reduced by 30% or more when measured 4 minutes after the last dose. All dogs received prophylactic antiarrhythmic treatment with intravenous lidocaine, 1.5 mg/kg body weight as a bolus 20 min after the end of embolization, followed by a continuous infusion of […].
Forty-five minutes were allowed to elapse to verify the stability of the preparation. If Lv dP/dt or left ventricular end diastolic pressure had changed by 20% or more between 30 and 45 minutes after embolization, the dogs were excluded from this study and not randomized. Forty-five minutes after the end of embolization, the dogs were assigned randomly to three groups: a) Berberine-treated group, 0.2 mg/kg/ min, dissolved in 60 ml of a solution of 5% dextrose in water administered in a constant infusion during 30 minutes; b) ouabain-treated group, 0.03 mg/kg was administered in 60 ml of a 5% solution of dextrose in water during 30 minutes; and c) Control group, administration of 60 ml of a 5% solution of dextrose in water during 30 min. […]

dogs = experiment: Myocardial oxygen consumption (MV02) and epicardial ST segment elevation experiments; settings: for myocardial oxygen consumption and myocardial injury: dogs, varying dosages
Source text: These changes were due to lower. myocardial oxygen consumption during the occlusion with berberine treatment. […] This is quite an advanageous therapeutic combination of properties which further distinguish the compounds used in the invention from the conventional drugs.

[3] = 0.7 mg/Kg/min, after 35 minutes
[4] = 0.7 mg/Kg/min, over the control

For `COc1cc2c(cc1O)C[C@H]1c3cc(O)c(OC)cc3CCN1C2` [coreximine], the “reduction of calculated peripheral resistance” value (Mongrel dogs [1]) was “did not show that property to that pronounced degree”, the “Stroke volume (SV)” value (Mongrel dogs [1]; 0.2 mg/Kg/min (Table XIII)) was “increased significantly” and the “fall of heart rate (HR)” value (Mongrel dogs [1]; 0.2 mg/Kg/min (Table XIII)) was 16-17%. The “overall result in the model of acute left ventricular failure” value (Mongrel dogs [2]) was “perform in an equivalent manner”, the preload reduction (Mongrel dogs [2]) was “comparable preload reduction” and the “myocardial oxygen consumption and myocardial injury” value (dogs) was “reduction on myocardial oxygen consumption and less myocardial injury than the control”.

For `COc1ccc2cc3[n+](cc2c1OC)CCc1cc2c(cc1-3)OCO2` [berberine], the “increase in dP/dt” value (Mongrel dogs [1]; 0.002 mg/Kg/min, one additional dog) was 20%, the “increase of pulse pressure” value (Mongrel dogs [1]; 0.02 mg/Kg/min (group d)) was 18.5 ± 10% and the “increase in dP/dt” value (Mongrel dogs [1]; 0.02 mg/Kg/min, after 35 minutes) was 35.8 ± 8.2%. For the same compound, the “reduction of calculated peripheral resistance” value (Mongrel dogs [1]) was “over 30%”, the “Stroke volume (SV)” value (Mongrel dogs [1]; 0.2 mg/Kg/min (Table XIII)) was “increased significantly” and the “fall in diastolic arterial pressure (widening in the pulse-pressure, PP) relative to the other three drugs” value (Mongrel dogs [1]; 0.2 mg/Kg/min (Table XIII)) was “more than twice as large”. The “fall of heart rate (HR)” value (Mongrel dogs [1]; 0.2 mg/Kg/min (Table XIII)) was 16-17%, the “increase of aortic flow (stroke volume)” value (Mongrel dogs [1]; 0.2 mg/Kg/min (group c)) was 53.6 ± 17.7% and the “reduction of heart rate” value (Mongrel dogs [1]; 0.7 mg/Kg/min) was 32 ± 3%. The “increase in LV dP/dt” value (Mongrel dogs [1]; 0.7 mg/Kg/min, after 5 minutes) was 35%, the “decrease of calculated total peripheral resistance” value (Mongrel dogs [1]; [3]) was 46.8 ± 9.3% and the “increase of aortic pulse-pressure” value (Mongrel dogs [1]; [3]) was 125 ± 19%. For the same compound, the “increase of peak aortic blood flow” value (Mongrel dogs [1]; 0.7 mg/Kg/min, after 35 minutes, ascending aorta) was 73%, the “increase in LV dP/dt” value (Mongrel dogs [1]; 0.7 mg/Kg/min, at 35 minutes) was 43.2 ± 7.0% and the “increase in cardiac output” value (Mongrel dogs [1]; [4]) was 75 ± 29%. For the same compound, the “increase in stroke volume (calculated by planimetry)” value (Mongrel dogs [1]; [4]) was 169 ± 36%, the “fall in heart rate” value (Mongrel dogs [1]; at the smaller doses) was “no significant fall in heart rate” and the QTc interval (Mongrel dogs [1]; dog, in vivo) was “overall increase”. The P-R interval (Mongrel dogs [1]; i.v. for 60' (0.7 mg/Kg/min), total 42 mg/Kg) was “does not increase the P-R interval”, the “QRS complex or interval” value (Mongrel dogs [1]; over the period of i.v. administration (Fig. XVII)) was “not increased” and the “average increase of QTc” value (Mongrel dogs [1]; when dP/dt is increased by 43%) was 16%. The “time to increase of LVdP/dt and reduction of left ventricular end diastolic pressure” value (Mongrel dogs [2]; 0.2 mg/kg/min infusion) was ≤ 2.5 min, the “Diastolic and mean arterial pressure” value (Mongrel dogs [2]; 0.2 mg/kg/min, 30 min) was “significantly although only slightly reduced” and the Systolic arterial pressure (Mongrel dogs [2]; 0.2 mg/kg/min, 30 min) was “not significantly changed”. For the same compound, the “decrease of total peripheral vascular resistance” value (Mongrel dogs [2]; 0.2 mg/kg/min, 30 min) was 19 ± 2%, the “fall of heart rate” value (Mongrel dogs [2]; 0.2 mg/kg/min, 30 min) was 8 beats/min and the “increase of LVdP/dt” value (Mongrel dogs [2]; 0.2 mg/kg/min, end of the 30-minute infusion) was 28 ± 8%. It also gave a cardiac output (Mongrel dogs [2]; after infusion, from 1.76 ± 0.15) of 1.93 ± 0.16 L/min, a Stroke volume (Mongrel dogs [2]; after infusion, from 14.6 ± 1.9) of 17.3 ± 2.7 mL and a pulse pressure (Mongrel dogs [2]; after infusion, from 28 ± 2) of 33 ± 4 mmHg. For the same compound, the “Total peripheral vascular resistance” value (Mongrel dogs [2]; after infusion, from 4915 ± 559) was 4004 ± 496 10^-5N·S·cm^-5, the “decrease of left venticular end diastolic pressure” value (Mongrel dogs [2]; end of the 30-minute infusion) was 38 ± 4% and the “Left venticular end diastolic pressure” value (Mongrel dogs [2]; end of the 30-minute infusion, from 13.3 ± 0.8) was 8.1 ± 0.5 mmHg. The LVdP/dt (Mongrel dogs [2]; end of the 30-minute infusion, from 1572 ±80) was 2010 ± 95 mmHg/s, the “epicardial ST segment elevations” value (dogs; after coronary artery occlusion) was “did not change them” and the “myocardial injury (epicardial ST segment elevations)” value (dogs; consecutive occlusions, 0.2 mg/kg/min, vs control occlusion, pilot experiments) was “less myocardial injury”. For the same compound, the myocardial oxygen consumption (dogs; dogs with acute left ventricular failure, effect greater than that of ouabain) was “significantly reduced”, the myocardial oxygen consumption (dogs; dogs without coronary artery occlusion) was “reduction in myocardial oxygen consumption” and the “mycardial oxygen consumption (MV02)” value (dogs; non-failing heart, 0.02 mg/kg.min) was “did not change”.

For `COc1ccc2cc3[n+](cc2c1O)CCc1cc2c(cc1-3)OCO2` [berberrubine], the “reduction of calculated peripheral resistance” value (Mongrel dogs [1]) was “did not show that property to that pronounced degree”, the “Stroke volume (SV)” value (Mongrel dogs [1]; 0.2 mg/Kg/min (Table XIII)) was “just slightly (and not statistically significantly)” and the “fall of heart rate (HR)” value (Mongrel dogs [1]; 0.2 mg/Kg/min (Table XIII)) was 16-17%. For the same compound, the “overall result in the model of acute left ventricular failure” value (Mongrel dogs [2]) was “perform in an equivalent manner”, the preload reduction (Mongrel dogs [2]) was “comparable preload reduction” and the “myocardial oxygen consumption and myocardial injury” value (dogs) was “reduction on myocardial oxygen consumption and less myocardial injury than the control”.
